According to patent US20180282415A1, “Combination of a PD-1 Axis Binding Antagonist and an ALK Inhibitor for Treating ALK-Negative Cancer” (Merck Patent GmbH, priority 2015, published 2018):

Columns and labels:
[1] = test system: CD3/CD28-stimulated effector cells (T cells from healthy donors' PBMCs); test: T cell proliferation assay (3H thymidine incorporation), CD3/CD28-stimulated T cells; format: cell-based, human; details: for Thymidine incorporation(CPM): log[Agonist]
From the text: (§1) Briefly, human cells were isolated from healthy donors' PBMCs by using EasySep™ Human T Cell Enrichment Kit (Stemcell Technologies) according to manufacturer's instruction. […] Culture supernatants were collected on Day 2 or 3 for cytokine analysis. Plates were then harvested on DNA specific filter papers (Perkin Elmer) using Harvester96 (Tomtec Life Sciences). The radiolabeled filters were covered with beta scintillation liquid (Perkin Elmer) and read in Microbeta® counter plates (Perkin Elmer). ^3H Thymidine was pulsed on Day 2 for T cell proliferation assay.

activated T cells = test: T cell viability, Cell-Titer Glo Luminescent Cell Viability Assay; format: cell-based, human; details: for Luciferase RLU (T cell viability): log[Agonist]
Experimental: as §1, with “instruction. […] Cells were cultured in RPMI 1640 medium supplemented with 10% FCS and 100 I.U./mL penicillin/streptomycin in humidified incubator at 37° C. with 5% CO2.” for “instruction.”, “assay. The impact by sunitinib and axitinib on T cell proliferation and viability were repeated as previously published (FIGS. 1A and 1B).” for “assay.”
Cell viability was measured by Cell-Titer Glo Luminescent Cell Viability Assay® (Promega, Madison). […] Table 4 below provides the Luciferase RLU values reflecting T cell viability for each of the respective inhibitors.

CT26 colon carcinoma = test: In vivo tumor efficacy, CT26 model, crizotinib or alectinib with anti-PD-L1 (Example 3); parameters: species or system Balb/c mice
From the text: (§2) CT26 colon carcinoma cell line has published mutanome and transcriptome data, with no known ALK fusion events or oncogenic mutations. Castle et al, BMC Genomics, 15:190 (13 Mar. 2014); Castle et al, CAN 11:3722 (11 Jan. 2012).
(§3) Six- to eight-week old female Balb/c or C57BL/6 mice were purchased from The Jackson Laboratories.
CT26 cell lines, anti-PD-L1 antibody and Rat IgG isotypes (IgG2a and IgG2b) were purchased from BioXCell (clones 2A3 and LTF2, respectively) and prepared as described in Example 2 above. […]

MC38 colon carcinoma [2] = test: In vivo tumor efficacy, MC38 model, crizotinib with anti-PD-L1 (Example 3); parameters: species or system C57BL/6 mice; details: crizotinib 40 mg/kg, anti-mPDL1 10 mg/kg
Experimental: as §2, §3
MC38 colon carcinoma cell line was kindly provided by Dr. Antoni Ribas at UCLA, California. Cells were cultured in DMEM medium supplemented with 10% fetal bovine serum, and 100 I.U./mL penicillin/streptomycin at 37° C. in an atmosphere of 5% CO2 in air, and IMPACT-tested for pathogens at Research Animal Diagnostic Laboratory (RADIL) (Columbia, Mo.). Pathogen-free cells growing in an exponential growth phase were harvested and used for tumor inoculation.
For the MC38 study, C57BL/6 mice were inoculated subcutaneously in the right lower flank with 0.2×10^6 MC38 colon carcinoma cells. When tumor bearing mice achieved a mean tumor volume of 50 to 150 mm^3, mice were randomly assigned to 1 of 4 treatment groups, n=10.

MC38 colon carcinoma [3] = test: In vivo tumor efficacy, MC38 model, crizotinib with avelumab (Example 5); parameters: species or system C57BL/6 mice; details: for Tumor Volume (Mean ± SEM): avelumab 20 mg/kg i.p., crizotinib 40 mg/kg orally QD
Experimental: Avelumab is a fully human IgG1 antibody that recognizes both human and mouse PD-L1. […] Six- to eight-week old female C57BL/6 mice were purchased from The Jackson Laboratories (Farmington, Conn.). Mice were maintained and all animal experiments were conducted according to the protocols approved by the Institutional Animal Care and Use Committee of Rinat, South San Francisco and Worldwide Research and Development (WRD), La Jolla, Pfizer Inc. MC38 colon carcinoma cell line was kindly provided by Dr. Antoni Ribas at UCLA, California. Cells were cultured in DMEM medium supplemented with 10% fetal bovine serum, and 100 I.U./mL penicillin/streptomycin at 37° C. in an atmosphere of 5% CO2 in air, and IMPACT-tested for pathogens at Research Animal Diagnostic Laboratory (RADIL) (Columbia, Mo.). Pathogen-free cells growing in an exponential growth phase were harvested and used for tumor inoculation. […] Human IgG1 was prepared in-house (Lot No. NB123249p192CA110124). […] Body weight was recorded weekly. […] Mice were monitored for tumor growth and body weight changes.

[4] = test system: peripheral blood mononuclear cells (PMBCs); details: published studies (Stehle et al. 2013); cited from earlier work

With `C[C@@H](Oc1cc(-c2cnn(C3CCNCC3)c2)cnc1N)c1c(Cl)ccc(F)c1Cl` [crizotinib, 3-[(1R)-1-(2,6-dichloro-3-fluorophenyl)ethoxy]-5-(1-piperidin-4-ylpyrazol-4-yl)pyridin-2-amine] the “Effect on T cell proliferation” value ([1]; activated T cells, FIG. 1A) was “did not have adverse effects on T cell proliferation”, the “Thymidine incorporation(CPM)” value ([1]; μM: 0) was 432360.3 ± 29488.63 CPM and the “Thymidine incorporation(CPM)” value ([1]; μM: 1) was 436099.3 ± 34171.33 CPM. For the same compound, the “Thymidine incorporation(CPM)” value ([1]; μM: 2) was 270672.7 ± 18298.53 CPM, the “Thymidine incorporation(CPM)” value ([1]; μM: −1) was 438641 ± 47103.88 CPM and the “Thymidine incorporation(CPM)” value ([1]; μM: −2) was 442995.3 ± 42508.08 CPM. For the same compound, the “Thymidine incorporation(CPM)” value ([1]; μM: −3) was 421221.3 ± 24333.6 CPM, the “Effect on T cell viability” value (activated T cells; FIG. 1B) was “did not result in dose-dependent decreases in T cell viability” and the “Luciferase RLU (T cell viability)” value (activated T cells; μM: 0) was 94.22 ± 1.814 RLU. For the same compound, the “Luciferase RLU (T cell viability)” value (activated T cells; μM: 1) was 91.72 ± 2.354 RLU, the “Luciferase RLU (T cell viability)” value (activated T cells; μM: 2) was 64.24 ± 3.748 RLU and the “Luciferase RLU (T cell viability)” value (activated T cells; μM: 3) was 1.474 ± 0.1693 RLU. For the same compound, the “Luciferase RLU (T cell viability)” value (activated T cells; μM: −1) was 95.6927 ± 1.827 RLU, the “Luciferase RLU (T cell viability)” value (activated T cells; μM: −2) was 93.68 ± 1.564 RLU and the “Luciferase RLU (T cell viability)” value (activated T cells; μM: −3) was 89.08 ± 2.843 RLU. For the same compound, the “Tumor Volume (Mean ± SEM)” value (CT26 colon carcinoma; Day 7, crizotinib 5 mg/kg (alone or with anti-mPDL1)) was 90.3 ± 8.1 mm^3, the “Tumor Volume (Mean ± SEM)” value (CT26 colon carcinoma; Day 7, crizotinib 20 mg/kg (alone or with anti-mPDL1)) was 90.3 ± 8.0 mm^3 and the “Tumor Volume (Mean ± SEM)” value (CT26 colon carcinoma; Day 7, crizotinib 40 mg/kg (alone or with anti-mPDL1)) was 94.4 ± 7.9 mm^3. The “Tumor Volume (Mean ± SEM)” value (CT26 colon carcinoma; Day 10, crizotinib 5 mg/kg (alone or with anti-mPDL1)) was 140.9 ± 18.0 mm^3, the “Tumor Volume (Mean ± SEM)” value (CT26 colon carcinoma; Day 10, crizotinib 20 mg/kg (alone or with anti-mPDL1)) was 156.1 ± 21.9 mm^3 and the “Tumor Volume (Mean ± SEM)” value (CT26 colon carcinoma; Day 10, crizotinib 40 mg/kg (alone or with anti-mPDL1)) was 127.0 ± 9.8 mm^3. For the same compound, the “Tumor Volume (Mean ± SEM)” value (CT26 colon carcinoma; Day 14, crizotinib 5 mg/kg (alone or with anti-mPDL1)) was 246.6 ± 54.7 mm^3, the “Tumor Volume (Mean ± SEM)” value (CT26 colon carcinoma; Day 14, crizotinib 20 mg/kg (alone or with anti-mPDL1)) was 234.2 ± 49.0 mm^3 and the “Tumor Volume (Mean ± SEM)” value (CT26 colon carcinoma; Day 14, crizotinib 40 mg/kg (alone or with anti-mPDL1)) was 218.5 ± 31.5 mm^3. For the same compound, the “Tumor Volume (Mean ± SEM)” value (CT26 colon carcinoma; Day 18, crizotinib 5 mg/kg (alone or with anti-mPDL1)) was 407.1 ± 122.2 mm^3, the “Tumor Volume (Mean ± SEM)” value (CT26 colon carcinoma; Day 18, crizotinib 20 mg/kg (alone or with anti-mPDL1)) was 299.3 ± 67.1 mm^3 and the “Tumor Volume (Mean ± SEM)” value (CT26 colon carcinoma; Day 18, crizotinib 40 mg/kg (alone or with anti-mPDL1)) was 319.6 ± 47.7 mm^3. For the same compound, the “Tumor Volume (Mean ± SEM)” value (CT26 colon carcinoma; Day 22, crizotinib 5 mg/kg (alone or with anti-mPDL1)) was 749.8 ± 220.0 mm^3, the “Tumor Volume (Mean ± SEM)” value (CT26 colon carcinoma; Day 22, crizotinib 20 mg/kg (alone or with anti-mPDL1)) was 631.3 ± 158.5 mm^3 and the “Tumor Volume (Mean ± SEM)” value (CT26 colon carcinoma; Day 22, crizotinib 40 mg/kg (alone or with anti-mPDL1)) was 685.3 ± 101.1 mm^3. The “Tumor Volume (Mean ± SEM)” value (CT26 colon carcinoma; Day 25, crizotinib 5 mg/kg (alone or with anti-mPDL1)) was 1161.1 ± 415.4 mm^3, the “Tumor Volume (Mean ± SEM)” value (CT26 colon carcinoma; Day 25, crizotinib 20 mg/kg (alone or with anti-mPDL1)) was 934.9 ± 223.8 mm^3 and the “Tumor Volume (Mean ± SEM)” value (CT26 colon carcinoma; Day 25, crizotinib 40 mg/kg (alone or with anti-mPDL1)) was 1074.5 ± 136.2 mm^3. The “Anti-tumor effect in CT26 model” value (CT26 colon carcinoma; compared to isotype control or single agents) was “no anti-tumor effects”, the “Tumor Volume (Mean ± SEM)” value (MC38 colon carcinoma [2]; Day 7) was 78.1 ± 6.0 mm^3 and the “Tumor Volume (Mean ± SEM)” value (MC38 colon carcinoma [2]; Day 14) was 169.7 ± 16.3 mm^3. For the same compound, the “Tumor Volume (Mean ± SEM)” value (MC38 colon carcinoma [2]; Day 19) was 291.7 ± 26.2 mm^3, the “Tumor Volume (Mean ± SEM)” value (MC38 colon carcinoma [2]; Day 24) was 580.5 ± 67.0 mm^3 and the “Tumor Volume (Mean ± SEM)” value (MC38 colon carcinoma [2]; Day 27) was 836.5 ± 137.8 mm^3. For the same compound, the “Tumor Volume (Mean ± SEM)” value (MC38 colon carcinoma [3]; Day 7) was 78.1 ± 6.0 mm^3, the “Tumor Volume (Mean ± SEM)” value (MC38 colon carcinoma [3]; Day 14) was 169.7 ± 16.3 mm^3 and the “Tumor Volume (Mean ± SEM)” value (MC38 colon carcinoma [3]; Day 19) was 291.7 ± 26.2 mm^3. The “Tumor Volume (Mean ± SEM)” value (MC38 colon carcinoma [3]; Day 24) was 580.5 ± 67.0 mm^3, the “Tumor Volume (Mean ± SEM)” value (MC38 colon carcinoma [3]; Day 27) was 836.5 ± 137.8 mm^3 and the TGI (MC38 colon carcinoma [3]; compared with the isotype control antibody treated group, avelumab 20 mg/kg, crizotinib 40 mg/kg) was 48.5%.

For `CNC(=O)c1ccccc1Sc1ccc2c(/C=C/c3ccccn3)n[nH]c2c1` [Axitinib, axitinib], the “Thymidine incorporation(CPM)” value ([1]; μM: 0) was 437978 ± 5214.787 CPM, the “Thymidine incorporation(CPM)” value ([1]; μM: 1) was 385672.3 ± 9004.015^ CPM and the “Thymidine incorporation(CPM)” value ([1]; μM: 2) was 300379.3 ± 25594 CPM. The “Thymidine incorporation(CPM)” value ([1]; μM: 3) was 291128.7 ± 31076.09^ CPM, the “Thymidine incorporation(CPM)” value ([1]; μM: −1) was 407235 ± 52888.48 CPM and the “Thymidine incorporation(CPM)” value ([1]; μM: −2) was 408592.3 ± 11690 CPM. The “Thymidine incorporation(CPM)” value ([1]; μM: −3) was 394950 ± 19054.05 CPM, the “Luciferase RLU (T cell viability)” value (activated T cells; μM: 0) was 92.63 ± 0.5221 RLU and the “Luciferase RLU (T cell viability)” value (activated T cells; μM: 1) was 89.79 ± 1.428 RLU. The “Luciferase RLU (T cell viability)” value (activated T cells; μM: 2) was 86.63 ± 0.8779 RLU, the “Luciferase RLU (T cell viability)” value (activated T cells; μM: 3) was 78.81 ± 3.223 RLU and the “Luciferase RLU (T cell viability)” value (activated T cells; μM: −1) was 91.35 ± 1.526 RLU. The “Luciferase RLU (T cell viability)” value (activated T cells; μM: −2) was 95.54 ± 3.15 RLU, the “Luciferase RLU (T cell viability)” value (activated T cells; μM: −3) was 97.36 ± 1.186 RLU and the “Toxicity in peripheral blood mononuclear cells” value [4] was “only minor toxicity effects”.
